The target of assay [1] is T1, mouse GLP-1 receptor (Mus musculus, UniProt O35659).
T1 sequence (O35659 22-463): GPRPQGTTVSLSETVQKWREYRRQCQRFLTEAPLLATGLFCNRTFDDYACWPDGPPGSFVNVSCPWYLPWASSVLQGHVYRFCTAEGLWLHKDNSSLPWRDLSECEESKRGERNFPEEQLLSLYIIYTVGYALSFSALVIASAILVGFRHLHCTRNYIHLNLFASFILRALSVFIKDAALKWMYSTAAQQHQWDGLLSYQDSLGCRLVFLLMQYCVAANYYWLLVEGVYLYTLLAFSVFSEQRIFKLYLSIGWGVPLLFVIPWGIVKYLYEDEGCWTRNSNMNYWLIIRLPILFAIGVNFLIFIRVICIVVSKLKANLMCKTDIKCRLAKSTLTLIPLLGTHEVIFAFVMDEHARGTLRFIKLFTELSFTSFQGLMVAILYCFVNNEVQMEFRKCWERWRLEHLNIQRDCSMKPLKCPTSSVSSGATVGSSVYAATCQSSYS
Nature of the assay: cell-based. To be noted: for Emax: 14: experiment 1.

In assay [2] the target is T1, mouse GLP-1 receptor. As to conditions: for Potency (%), percentage of potency compare to GLP-1-G^2: cAMP production, from EC50. Background: Cyclic AMP is a second messenger, typically raised through Gs and lowered through Gi signalling.
Where [3] appears, read: read-out: Top (best-fit value), variable slope four-parameter fit, unconstrained.
The mark [4] stands for this setting: read-out: Top (best-fit value), fit with BOTTOM = 0%.

Like-named read-outs stand apart in the source and are kept apart here. Starred links: 1 amine or outer side, 2 acyl side, 3 side chain; linkers in the order of their positions; H or OH if unused. Positions of bridges follow the written chain, without caps; N, C: chain ends. Residues, ends and D or L forms follow the SMILES beside them. Chains are numbered I, II in the order given. X1 = C[C@@H](CNC(=O)N[C@@H](C)CNC(=O)[*:2])NC(=O)NC[C@H](C)N[*:1]; X5 = C[C@@H](CNC(=O)N[C@@H](C)CNC(=O)[*:1])NC(=O)NC[C@H](C)N[*:2] Where only a bound is given, the exact number is not on record here.

In general, EC50 refers to the concentration at which the effect is half-maximal. A high value points to a need for much substance. In the case of `CC[C@H](C)[C@H](NC(=O)[C@H](Cc1ccccc1)NC(=O)[C@H](CCC(=O)O)NC(=O)[C@H](CCCCN)NC(=O)[C@H](C)NC(=O)[C@H](C)NC(=O)[C@H](CCC(N)=O)NC(=O)CNC(=O)[C@H](CCC(=O)O)NC(=O)[C@H](CC(C)C)NC(=O)NC[C@H](C)NC(=O)NC[C@H](C)NC(=O)NC[C@H](C)NC(=O)[C@H](CC(=O)O)NC(=O)[C@H](CO)NC(=O)[C@@H](NC(=O)[C@H](Cc1ccccc1)NC(=O)[C@@H](NC(=O)CNC(=O)[C@H](CCC(=O)O)NC(=O)CNC(=O)[C@@H](N)Cc1c[nH]cn1)[C@@H](C)O)[C@@H](C)O)C(=O)N[C@@H](C)C(=O)N[C@@H](Cc1c[nH]c2ccccc12)C(=O)N[C@@H](CC(C)C)C(=O)N[C@H](C(=O)N[C@@H](CCCCN)C(=O)NCC(=O)N[C@@H](CCCNC(=N)N)C(=O)NCC(N)=O)C(C)C` [compound 3, GG2[A^uA^uA^u]^10-13], the EC50 at mouse GLP-1 receptor [1] was 650 nM. The Emax on mouse GLP-1 receptor [1] (setting [3]) came to 91.6%. Also, on mouse GLP-1 receptor [2], the “LogEC50 (best-fit value)” value was -6.187 and the “Potency (%), percentage of potency compare to GLP-1-G^2” value (“Potency (%), percentage” for short) is on record as 0.04%.
The like results for `CC[C@H](C)[C@H](NC(=O)[C@H](Cc1ccccc1)NC(=O)[C@H](CCC(=O)O)NC(=O)[C@H](CCCCN)NC(=O)[C@H](C)NC(=O)[C@H](C)NC(=O)[C@H](CCC(N)=O)NC(=O)CNC(=O)[C@H](CCC(=O)O)NC(=O)NC[C@H](C)NC(=O)NC[C@H](C)NC(=O)NC[C@H](C)NC(=O)[C@@H](NC(=O)[C@H](CC(=O)O)NC(=O)[C@H](CO)NC(=O)[C@@H](NC(=O)[C@H](Cc1ccccc1)NC(=O)[C@@H](NC(=O)CNC(=O)[C@H](CCC(=O)O)NC(=O)CNC(=O)[C@@H](N)Cc1c[nH]cn1)[C@@H](C)O)[C@@H](C)O)C(C)C)C(=O)N[C@@H](C)C(=O)N[C@@H](Cc1c[nH]c2ccccc12)C(=O)N[C@@H](CC(C)C)C(=O)N[C@H](C(=O)N[C@@H](CCCCN)C(=O)NCC(=O)N[C@@H](CCCNC(=N)N)C(=O)NCC(N)=O)C(C)C` [compound 4, GG2[A^uA^uA^u]^11-14] were, in that order, 97 nM, 81.8%, -7.014 and 0.2%.
Turning to `CC[C@H](C)[C@H](NC(=O)[C@H](Cc1ccccc1)NC(=O)[C@H](CCC(=O)O)NC(=O)[C@H](CCCCN)NC(=O)[C@H](C)NC(=O)[C@H](C)NC(=O)[C@H](CCC(N)=O)NC(=O)CNC(=O)NC[C@H](C)NC(=O)NC[C@H](C)NC(=O)NC[C@H](C)NC(=O)[C@H](CO)NC(=O)[C@@H](NC(=O)[C@H](CC(=O)O)NC(=O)[C@H](CO)NC(=O)[C@@H](NC(=O)[C@H](Cc1ccccc1)NC(=O)[C@@H](NC(=O)CNC(=O)[C@H](CCC(=O)O)NC(=O)CNC(=O)[C@@H](N)Cc1c[nH]cn1)[C@@H](C)O)[C@@H](C)O)C(C)C)C(=O)N[C@@H](C)C(=O)N[C@@H](Cc1c[nH]c2ccccc12)C(=O)N[C@@H](CC(C)C)C(=O)N[C@H](C(=O)N[C@@H](CCCCN)C(=O)NCC(=O)N[C@@H](CCCNC(=N)N)C(=O)NCC(N)=O)C(C)C` [compound 6, GG2[A^uA^uA^u]^12-15], on mouse GLP-1 receptor [1], the EC50 was over 10000 nM. The Emax on mouse GLP-1 receptor [1] (setting [4]) worked out at 6.08%; on mouse GLP-1 receptor [1] (setting [3]) it was 6.19%. In addition, on mouse GLP-1 receptor [2], the “Potency (%), percentage” value is under 0.01%.
On mouse GLP-1 receptor [1], `CC[C@H](C)[C@H](NC(=O)[C@H](Cc1ccccc1)NC(=O)[C@H](CCC(=O)O)NC(=O)[C@H](CCCCN)NC(=O)[C@H](C)NC(=O)[C@H](C)NC(=O)[C@H](CCC(N)=O)NC(=O)NC[C@H](C)NC(=O)NC[C@H](C)NC(=O)NC[C@H](C)NC(=O)[C@H](CO)NC(=O)[C@H](CO)NC(=O)[C@@H](NC(=O)[C@H](CC(=O)O)NC(=O)[C@H](CO)NC(=O)[C@@H](NC(=O)[C@H](Cc1ccccc1)NC(=O)[C@@H](NC(=O)CNC(=O)[C@H](CCC(=O)O)NC(=O)CNC(=O)[C@@H](N)Cc1c[nH]cn1)[C@@H](C)O)[C@@H](C)O)C(C)C)C(=O)N[C@@H](C)C(=O)N[C@@H](Cc1c[nH]c2ccccc12)C(=O)N[C@@H](CC(C)C)C(=O)N[C@H](C(=O)N[C@@H](CCCCN)C(=O)NCC(=O)N[C@@H](CCCNC(=N)N)C(=O)NCC(N)=O)C(C)C` [compound 7, GG2[A^uA^uA^u]^13-16] (I: QAAKEFIAWLVKGRG-NH2 / II: H-HGEGTFTSDVSS; linker I:N-II:C via X5) gave an EC50 of over 10000 nM. Also, the Emax at mouse GLP-1 receptor [1] (setting [3]) is about 208%.
`CC[C@H](C)[C@H](NC(=O)[C@H](Cc1ccccc1)NC(=O)[C@H](CCC(=O)O)NC(=O)[C@H](CCCCN)NC(=O)[C@H](C)NC(=O)[C@H](C)NC(=O)NC[C@H](C)NC(=O)NC[C@H](C)NC(=O)NC[C@H](C)NC(=O)[C@H](Cc1ccc(O)cc1)NC(=O)[C@H](CO)NC(=O)[C@H](CO)NC(=O)[C@@H](NC(=O)[C@H](CC(=O)O)NC(=O)[C@H](CO)NC(=O)[C@@H](NC(=O)[C@H](Cc1ccccc1)NC(=O)[C@@H](NC(=O)CNC(=O)[C@H](CCC(=O)O)NC(=O)CNC(=O)[C@@H](N)Cc1c[nH]cn1)[C@@H](C)O)[C@@H](C)O)C(C)C)C(=O)N[C@@H](C)C(=O)N[C@@H](Cc1c[nH]c2ccccc12)C(=O)N[C@@H](CC(C)C)C(=O)N[C@H](C(=O)N[C@@H](CCCCN)C(=O)NCC(=O)N[C@@H](CCCNC(=N)N)C(=O)NCC(N)=O)C(C)C` [compound 8, GG2[A^uA^uA^u]^14-17] (I: AAKEFIAWLVKGRG-NH2 / II: H-HGEGTFTSDVSSY; linker I:N-II:C via X5): on mouse GLP-1 receptor [1], the EC50 came to 353 nM. Also, the Emax at mouse GLP-1 receptor [1] (setting [3]) is 73.4%. In addition, at mouse GLP-1 receptor [2], the “LogEC50 (best-fit value)” value is -6.452 and the “Potency (%), percentage” value was 0.07%.
The like results for `CC[C@H](C)[C@H](NC(=O)[C@H](Cc1ccccc1)NC(=O)[C@H](CCC(=O)O)NC(=O)[C@H](CCCCN)NC(=O)[C@H](C)NC(=O)NC[C@H](C)NC(=O)NC[C@H](C)NC(=O)NC[C@H](C)NC(=O)[C@H](CC(C)C)NC(=O)[C@H](Cc1ccc(O)cc1)NC(=O)[C@H](CO)NC(=O)[C@H](CO)NC(=O)[C@@H](NC(=O)[C@H](CC(=O)O)NC(=O)[C@H](CO)NC(=O)[C@@H](NC(=O)[C@H](Cc1ccccc1)NC(=O)[C@@H](NC(=O)CNC(=O)[C@H](CCC(=O)O)NC(=O)CNC(=O)[C@@H](N)Cc1c[nH]cn1)[C@@H](C)O)[C@@H](C)O)C(C)C)C(=O)N[C@@H](C)C(=O)N[C@@H](Cc1c[nH]c2ccccc12)C(=O)N[C@@H](CC(C)C)C(=O)N[C@H](C(=O)N[C@@H](CCCCN)C(=O)NCC(=O)N[C@@H](CCCNC(=N)N)C(=O)NCC(N)=O)C(C)C` [compound 10, GG2[A^uA^uA^u]^15-18] (I: H-HGEGTFTSDVSSYL / II: AKEFIAWLVKGRG-NH2; linker I:C-II:N via X1) were, in that order, 123 nM, 61.5%, -6.91 and 0.2%.
For `CC[C@H](C)[C@H](NC(=O)[C@H](Cc1ccccc1)NC(=O)[C@H](CCC(=O)O)NC(=O)[C@H](CCCCN)NC(=O)NC[C@H](C)NC(=O)NC[C@H](C)NC(=O)NC[C@H](C)NC(=O)[C@H](CCC(=O)O)NC(=O)[C@H](CC(C)C)NC(=O)[C@H](Cc1ccc(O)cc1)NC(=O)[C@H](CO)NC(=O)[C@H](CO)NC(=O)[C@@H](NC(=O)[C@H](CC(=O)O)NC(=O)[C@H](CO)NC(=O)[C@@H](NC(=O)[C@H](Cc1ccccc1)NC(=O)[C@@H](NC(=O)CNC(=O)[C@H](CCC(=O)O)NC(=O)CNC(=O)[C@@H](N)Cc1c[nH]cn1)[C@@H](C)O)[C@@H](C)O)C(C)C)C(=O)N[C@@H](C)C(=O)N[C@@H](Cc1c[nH]c2ccccc12)C(=O)N[C@@H](CC(C)C)C(=O)N[C@H](C(=O)N[C@@H](CCCCN)C(=O)NCC(=O)N[C@@H](CCCNC(=N)N)C(=O)NCC(N)=O)C(C)C` [compound 12, GG2[A^uA^uA^u]^16-19] the same measures were 240 nM, 65%, -6.619 and 0.1%.
For the molecule `CC[C@H](C)[C@H](NC(=O)NC[C@H](C)NC(=O)NC[C@H](C)NC(=O)NC[C@H](C)NC(=O)[C@H](C)NC(=O)[C@H](CCC(N)=O)NC(=O)CNC(=O)[C@H](CCC(=O)O)NC(=O)[C@H](CC(C)C)NC(=O)[C@H](Cc1ccc(O)cc1)NC(=O)[C@H](CO)NC(=O)[C@H](CO)NC(=O)[C@@H](NC(=O)[C@H](CC(=O)O)NC(=O)[C@H](CO)NC(=O)[C@@H](NC(=O)[C@H](Cc1ccccc1)NC(=O)[C@@H](NC(=O)CNC(=O)[C@H](CCC(=O)O)NC(=O)CNC(=O)[C@@H](N)Cc1c[nH]cn1)[C@@H](C)O)[C@@H](C)O)C(C)C)C(=O)N[C@@H](C)C(=O)N[C@@H](Cc1c[nH]c2ccccc12)C(=O)N[C@@H](CC(C)C)C(=O)N[C@H](C(=O)N[C@@H](CCCCN)C(=O)NCC(=O)N[C@@H](CCCNC(=N)N)C(=O)NCC(N)=O)C(C)C` [compound 15, GG2[A^uA^uA^u]^19-22] (I: H-HGEGTFTSDVSSYLEGQA / II: IAWLVKGRG-NH2; linker I:C-II:N via X1), the EC50 at mouse GLP-1 receptor [1] is over 10000 nM. Further, the Emax at mouse GLP-1 receptor [1] (setting [4]) is about 538%; at mouse GLP-1 receptor [1] (setting [3]), 92.7%.

These data come from paper PMC6389962 (Nature Communications, 2019).
